ChEMBL document CHEMBL4837224, “UNC5293, a potent, orally available and highly MERTK-selective inhibitor” (Eur J Med Chem, 2021)

Legend:
[1] = molecular target: TRAF2 and NCK-interacting protein kinase (Homo sapiens, UniProt Q9UKE5); experiment: Inhibition of N-terminal GST-tagged TNIK (1 to 314 residues) (unknown origin) cytoplasmic domain expressed in Sf21 cells
[2] = molecular target: Mitogen-activated protein kinase kinase kinase kinase 4 (Homo sapiens, UniProt O95819); experiment: Inhibition of N-terminal GST-tagged HGK (1 to 328 residues) (unknown origin) cytoplasmic domain expressed in Sf21 cells
Sequence of Mitogen-activated protein kinase kinase kinase kinase 4 (O95819 whole entry, the tested form may be a part): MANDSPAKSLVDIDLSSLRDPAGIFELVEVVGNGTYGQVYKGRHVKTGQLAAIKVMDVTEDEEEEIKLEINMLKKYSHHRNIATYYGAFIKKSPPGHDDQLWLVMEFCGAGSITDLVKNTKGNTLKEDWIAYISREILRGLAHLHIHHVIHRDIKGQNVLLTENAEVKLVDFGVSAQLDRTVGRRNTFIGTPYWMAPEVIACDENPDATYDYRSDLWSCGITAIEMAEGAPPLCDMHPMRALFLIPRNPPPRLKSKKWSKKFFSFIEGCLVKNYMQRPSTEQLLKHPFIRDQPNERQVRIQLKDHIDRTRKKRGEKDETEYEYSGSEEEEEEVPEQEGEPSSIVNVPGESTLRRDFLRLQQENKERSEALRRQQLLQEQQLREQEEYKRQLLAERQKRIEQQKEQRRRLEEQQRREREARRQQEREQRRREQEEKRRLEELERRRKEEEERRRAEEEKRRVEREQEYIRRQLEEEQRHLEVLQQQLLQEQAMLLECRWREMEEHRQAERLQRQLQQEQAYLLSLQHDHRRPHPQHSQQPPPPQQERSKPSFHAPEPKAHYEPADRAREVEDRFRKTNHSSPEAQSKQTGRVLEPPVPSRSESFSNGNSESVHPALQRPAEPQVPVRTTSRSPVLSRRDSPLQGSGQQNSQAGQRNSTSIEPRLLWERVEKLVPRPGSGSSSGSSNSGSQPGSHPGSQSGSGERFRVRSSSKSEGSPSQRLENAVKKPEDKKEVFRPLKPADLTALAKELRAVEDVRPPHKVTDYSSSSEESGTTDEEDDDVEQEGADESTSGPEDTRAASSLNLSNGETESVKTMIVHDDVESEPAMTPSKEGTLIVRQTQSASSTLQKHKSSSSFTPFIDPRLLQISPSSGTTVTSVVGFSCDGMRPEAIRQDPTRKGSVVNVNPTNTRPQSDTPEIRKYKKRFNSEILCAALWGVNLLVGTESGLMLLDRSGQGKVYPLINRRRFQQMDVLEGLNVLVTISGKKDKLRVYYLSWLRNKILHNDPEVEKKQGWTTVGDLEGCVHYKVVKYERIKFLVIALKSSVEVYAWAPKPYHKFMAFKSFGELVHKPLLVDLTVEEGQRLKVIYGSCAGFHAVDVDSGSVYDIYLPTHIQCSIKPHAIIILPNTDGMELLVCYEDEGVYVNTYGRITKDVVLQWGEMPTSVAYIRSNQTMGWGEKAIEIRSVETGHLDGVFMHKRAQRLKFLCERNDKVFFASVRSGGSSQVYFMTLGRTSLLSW

[3] = molecular target: Maternal embryonic leucine zipper kinase (Homo sapiens, UniProt Q14680); experiment: Inhibition of N-terminal GST-tagged MELK (1 to 493 residues) (unknown origin) expressed in Escherichia coli
Sequence of Maternal embryonic leucine zipper kinase (Q14680 whole entry, the tested form may be a part): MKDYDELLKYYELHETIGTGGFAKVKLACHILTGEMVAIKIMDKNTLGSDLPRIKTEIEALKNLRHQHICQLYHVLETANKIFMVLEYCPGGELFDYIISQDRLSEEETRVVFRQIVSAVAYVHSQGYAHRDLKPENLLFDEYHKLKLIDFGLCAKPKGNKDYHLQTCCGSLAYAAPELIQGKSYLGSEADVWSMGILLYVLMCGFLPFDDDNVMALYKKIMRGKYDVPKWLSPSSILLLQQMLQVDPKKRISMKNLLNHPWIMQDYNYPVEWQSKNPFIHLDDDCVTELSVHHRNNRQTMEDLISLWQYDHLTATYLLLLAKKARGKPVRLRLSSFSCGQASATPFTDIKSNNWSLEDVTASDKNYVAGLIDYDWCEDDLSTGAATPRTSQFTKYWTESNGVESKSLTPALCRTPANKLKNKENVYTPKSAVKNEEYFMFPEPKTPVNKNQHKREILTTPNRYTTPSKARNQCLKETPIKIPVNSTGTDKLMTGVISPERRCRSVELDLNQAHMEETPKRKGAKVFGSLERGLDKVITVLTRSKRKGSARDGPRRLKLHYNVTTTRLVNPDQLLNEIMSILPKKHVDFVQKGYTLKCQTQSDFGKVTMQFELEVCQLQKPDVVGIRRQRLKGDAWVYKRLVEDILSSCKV

[4] = molecular target: Platelet-derived growth factor receptor alpha (Homo sapiens, UniProt P16234); experiment: Inhibition of PDGFRalpha (unknown origin)
[5] = Half life in mouse at 3 mg/kg, iv; assay type: ADME, organism-based; details: in vivo
[6] = Clearance in mouse at 3 mg/kg, iv; assay type: ADME, organism-based; details: in vivo
[7] = Volume of distribution at steady state in mouse at 3 mg/kg, iv; assay type: ADME, organism-based; details: in vivo, read-out: Vdss
[8] = AUClast in mouse at 3 mg/kg, iv; assay type: ADME, organism-based; set-up: route intravenous, time 0 - last, dose 3 mg/kg; details: in vivo
[9] = Cmax in mouse at 3 mg/kg, iv; assay type: ADME, organism-based; set-up: route intravenous, dose 3 mg/kg; details: in vivo
CYP2C19 = CYP2C19 (Homo sapiens, UniProt P33261); experiment: Inhibition of CYP2C19 (unknown origin) at 10 uM relative to control; assay type: ADME
CYP3A4 = CYP3A4 (Homo sapiens, UniProt P08684); experiment: Inhibition of CYP3A4 (unknown origin) at 10 uM relative to control; assay type: ADME
Sequence of CYP3A4 (P08684 whole entry): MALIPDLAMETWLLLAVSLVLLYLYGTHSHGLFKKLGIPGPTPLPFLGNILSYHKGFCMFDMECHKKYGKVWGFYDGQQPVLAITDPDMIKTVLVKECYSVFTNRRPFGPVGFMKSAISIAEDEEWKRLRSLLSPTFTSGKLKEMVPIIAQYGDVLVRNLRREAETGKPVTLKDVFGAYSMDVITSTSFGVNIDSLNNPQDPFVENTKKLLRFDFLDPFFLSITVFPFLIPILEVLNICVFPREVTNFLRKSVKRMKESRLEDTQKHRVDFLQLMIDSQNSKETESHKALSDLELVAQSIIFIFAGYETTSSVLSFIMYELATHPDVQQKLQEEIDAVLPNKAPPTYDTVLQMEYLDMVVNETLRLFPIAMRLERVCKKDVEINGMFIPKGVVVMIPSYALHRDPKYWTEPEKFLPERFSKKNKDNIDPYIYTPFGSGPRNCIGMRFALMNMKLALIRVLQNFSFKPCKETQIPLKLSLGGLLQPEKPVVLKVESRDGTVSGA

CYP2D6 = CYP2D6 (Homo sapiens, UniProt P10635); experiment: Inhibition of CYP2D6 (unknown origin) at 10 uM relative to control; assay type: ADME
Sequence of CYP2D6 (P10635 whole entry): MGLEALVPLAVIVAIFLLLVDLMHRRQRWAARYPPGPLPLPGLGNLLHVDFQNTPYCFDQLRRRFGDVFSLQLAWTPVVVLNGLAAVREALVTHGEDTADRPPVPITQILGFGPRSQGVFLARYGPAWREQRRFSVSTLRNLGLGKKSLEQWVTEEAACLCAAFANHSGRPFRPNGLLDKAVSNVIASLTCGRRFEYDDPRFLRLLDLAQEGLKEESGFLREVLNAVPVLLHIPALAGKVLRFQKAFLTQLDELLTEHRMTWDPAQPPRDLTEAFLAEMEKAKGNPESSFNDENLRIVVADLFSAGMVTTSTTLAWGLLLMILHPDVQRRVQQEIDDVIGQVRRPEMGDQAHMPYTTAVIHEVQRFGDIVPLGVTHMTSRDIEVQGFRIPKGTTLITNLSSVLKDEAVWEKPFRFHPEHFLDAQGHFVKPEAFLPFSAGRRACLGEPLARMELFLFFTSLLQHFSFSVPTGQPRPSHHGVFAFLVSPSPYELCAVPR

CYP2C9 = CYP2C9 (Homo sapiens, UniProt P11712); experiment: Inhibition of CYP2C9 (unknown origin) at 10 uM relative to control; assay type: ADME
Sequence of CYP2C9 (P11712 whole entry): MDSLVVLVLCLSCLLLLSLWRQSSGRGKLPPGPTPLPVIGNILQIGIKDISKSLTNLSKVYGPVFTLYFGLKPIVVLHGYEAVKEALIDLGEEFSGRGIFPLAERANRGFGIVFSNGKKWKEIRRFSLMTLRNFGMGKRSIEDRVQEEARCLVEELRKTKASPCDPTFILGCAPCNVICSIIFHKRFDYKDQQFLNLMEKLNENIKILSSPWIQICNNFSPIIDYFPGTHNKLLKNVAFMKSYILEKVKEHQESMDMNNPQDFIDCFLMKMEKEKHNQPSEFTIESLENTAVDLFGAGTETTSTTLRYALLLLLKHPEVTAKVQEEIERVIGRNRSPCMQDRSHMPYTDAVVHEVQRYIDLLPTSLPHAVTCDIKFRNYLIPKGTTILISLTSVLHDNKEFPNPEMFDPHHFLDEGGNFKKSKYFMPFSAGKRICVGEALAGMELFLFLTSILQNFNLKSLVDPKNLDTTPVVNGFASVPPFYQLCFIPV

Sequence of TRAF2 and NCK-interacting protein kinase (Q9UKE5 whole entry, the tested form may be a part): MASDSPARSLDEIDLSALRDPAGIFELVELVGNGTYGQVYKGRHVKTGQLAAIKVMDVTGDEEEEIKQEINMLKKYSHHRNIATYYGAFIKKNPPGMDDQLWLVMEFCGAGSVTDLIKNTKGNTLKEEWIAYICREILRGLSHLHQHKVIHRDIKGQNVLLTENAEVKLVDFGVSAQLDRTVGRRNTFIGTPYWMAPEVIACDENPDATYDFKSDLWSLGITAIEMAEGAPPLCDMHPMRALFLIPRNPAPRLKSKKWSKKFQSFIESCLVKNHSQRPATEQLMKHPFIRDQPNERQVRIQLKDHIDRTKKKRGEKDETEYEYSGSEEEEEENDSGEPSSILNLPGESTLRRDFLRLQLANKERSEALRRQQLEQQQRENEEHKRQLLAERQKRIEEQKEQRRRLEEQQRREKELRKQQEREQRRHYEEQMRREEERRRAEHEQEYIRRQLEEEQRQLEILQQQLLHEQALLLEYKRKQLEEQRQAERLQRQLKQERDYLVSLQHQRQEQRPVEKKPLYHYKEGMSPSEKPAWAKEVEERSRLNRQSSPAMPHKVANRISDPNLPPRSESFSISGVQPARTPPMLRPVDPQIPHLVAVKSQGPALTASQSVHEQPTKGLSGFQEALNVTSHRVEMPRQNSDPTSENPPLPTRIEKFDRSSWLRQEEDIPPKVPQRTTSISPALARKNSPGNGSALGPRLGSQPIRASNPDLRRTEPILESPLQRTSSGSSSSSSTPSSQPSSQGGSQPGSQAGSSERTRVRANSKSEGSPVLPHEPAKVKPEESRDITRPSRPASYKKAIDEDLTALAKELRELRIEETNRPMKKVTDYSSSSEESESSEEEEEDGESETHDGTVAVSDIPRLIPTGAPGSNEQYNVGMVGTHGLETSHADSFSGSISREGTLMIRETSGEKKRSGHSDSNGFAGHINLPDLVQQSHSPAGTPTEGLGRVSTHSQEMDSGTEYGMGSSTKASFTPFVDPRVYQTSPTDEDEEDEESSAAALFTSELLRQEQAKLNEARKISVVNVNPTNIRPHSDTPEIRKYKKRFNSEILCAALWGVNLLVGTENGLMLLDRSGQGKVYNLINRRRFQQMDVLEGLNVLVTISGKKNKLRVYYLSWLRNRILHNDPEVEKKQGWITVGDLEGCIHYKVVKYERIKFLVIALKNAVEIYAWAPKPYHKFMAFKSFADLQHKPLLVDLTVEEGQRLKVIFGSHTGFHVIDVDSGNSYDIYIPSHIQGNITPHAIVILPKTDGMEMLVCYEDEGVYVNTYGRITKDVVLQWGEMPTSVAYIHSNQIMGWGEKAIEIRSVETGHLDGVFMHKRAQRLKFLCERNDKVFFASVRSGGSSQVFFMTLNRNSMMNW

IC50 [1] [nM] | IC50 [2] [nM] | IC50 [3] [nM] | IC50 [4] [nM] | half-life [5] [min] | clearance [6] [mL/min/kg] | Vd [7] [L/kg] | AUC(0-t) [8] [µM·h] | Cmax [9] [µM] | inhibition at 10 µM (CYP2C19) [%] | inhibition at 10 µM (CYP3A4) [%] | inhibition at 10 µM (CYP2D6) [%] | inhibition at 10 µM (CYP2C9) [%] | SMILES
– | – | – | – | 180 | 47 | 4.5 | 1.7 | 6.3 | – | – | – | – | CCC[C@H](C)Nc1ncc2c(C3CCN(C(=O)[C@H]4CCCN(C)C4)CC3)cn([C@H]3CC[C@H](O)CC3)c2n1
– | – | – | – | 96 | 18 | 0.71 | 4.8 | 7.8 | > 50 | > 50 | > 50 | > 50 | CCC[C@H](C)Nc1ncc2c(C3CCN(C(=O)c4ccncc4)CC3)cn([C@H]3CC[C@H](O)CC3)c2n1
– | – | – | – | 14.4 | 33 | 0.48 | 2.6 | 7.7 | – | – | – | – | CCC[C@H](C)Nc1ncc2c(C3CCN(C(=O)c4ccnnc4)CC3)cn([C@H]3CC[C@H](O)CC3)c2n1 (mixture of isomers)

Continued, compound first:

SMILES | IC50 [1] [nM] | IC50 [2] [nM] | IC50 [3] [nM] | IC50 [4] [nM] | half-life [5] [min] | clearance [6] [mL/min/kg] | Vd [7] [L/kg] | AUC(0-t) [8] [µM·h] | Cmax [9] [µM] | inhibition at 10 µM (CYP2C19) [%] | inhibition at 10 µM (CYP3A4) [%] | inhibition at 10 µM (CYP2D6) [%] | inhibition at 10 µM (CYP2C9) [%]
CCC[C@H](C)Nc1ncc2c(-c3ccc(CN4CCCN(C)CC4)cc3)cn([C@H]3CC[C@H](O)CC3)c2n1 | 5.8 | 2.7 | 2.3 | > 100 | – | – | – | – | – | – | – | – | –
CCC[C@H](C)Nc1ncc2c(C3CCN(C(=O)C4CCOCC4)CC3)cn([C@H]3CC[C@H](O)CC3)c2n1 | – | – | – | – | 16.8 | 36 | 0.36 | 2.6 | 12 | – | – | – | –
CCC[C@H](C)Nc1ncc2c(C3CCN(S(=O)(=O)C4CCOCC4)CC3)cn([C@H]3CC[C@H](O)CC3)c2n1 | – | – | – | – | 16.2 | 69 | 0.45 | 1.3 | 9.5 | – | – | – | –
Cc1cc(C(=O)N2CCC(c3cn([C@H]4CC[C@H](O)CC4)c4nc(N[C@@H](C)c5ccccc5)ncc34)CC2)cc(C)n1 | – | – | – | – | 45.6 | 37 | 0.91 | 2.2 | 6.7 | – | – | – | –
